Results published in US20140303251A1, “Methods Of Treating Acute Kidney Injury With Retinoic Acid” (Beth Israel Deaconess Medical Center, Inc., priority 2011, published 2014).

Key:
renal IRI = test: renal ischemia reperfusion injury (IRI) in mice, 9-cis retinoic acid given 4 h prior; assay type: in vivo; details: for BUN (serum blood urea nitrogen) / serum creatinine / tubular / renal injury score / apoptotic cells in kidney (TUNEL) / neutrophil infiltration in kidney / CXCL2 gene expression level in kidney: 10 mg/kg 4 h prior to IRI; for BUN (serum blood urea nitrogen) / serum creatinine: 24 h after IRI; for BUN (serum blood urea nitrogen) / serum creatinine / tubular / renal injury score / apoptotic cells in kidney (TUNEL) / neutrophil infiltration in kidney / CXCL2 gene expression level in kidney / Nor-1 and Nurr-1 levels in kidney / Nur77 gene expression level in kidney: vs vehicle; for BUN (serum blood urea nitrogen): P<0.0001; for serum creatinine: P<0.002; for apoptotic cells in kidney (TUNEL) / neutrophil infiltration in kidney: P<0.001; for CXCL2 gene expression level in kidney: P<0.02; for Nor-1 and Nurr-1 levels in kidney / Nur77 gene expression level in kidney: 10 mg/kg body weight 4 h prior to IRI, 24 hours after injury, qPCR; for localization pattern of Nur77: 24 h post IRI, immunochemistry
Experimental: Male mice of age 8-10 weeks were used in this study. Animals were anesthetized using xylazine and ketamine and kept on 37° C. warming pads. The kidneys were exposed by flank incision and both kidney pedicles were clamped for 45 minutes using non-traumatic microaneurysm clamps (Roboz, Rockville, Md.). Reperfusion was confirmed visually and the incision was sutured. Body temperature of the animals was maintained at 37° C. throughout the procedure.
9-cis retinoic acid in DMSO was administered to animals at a dose of 10 mg/kg body weight, 4 h prior to the IRI procedure. The final concentration of DMSO was 25% (v/v). Control animals received 25% (v/v) DMSO.
Kidneys from animals subjected to IRI were harvested. Transverse sections of the kidneys were either snap frozen in OCT or fixed in 10% formalin and processed for paraffin embedded sections. Renal morphology was assessed by PAS staining (Periodic acid-Schiff reagent). Neutrophil infiltration was assessed by staining formalin fixed paraffin embedded (FFPE) sections with anti-Ly6G (BD). Infiltrating neutrophils were counted in 3 independent HPFs (400×) per section per animal and represented as mean±SEM. Nur77 staining was carried out on FFPE sections after antigen retrievel using anti-mouse Nur77 antibody (Ebioscience). Endogenous mouse Ig was blocked using M.O.M kit from vector labs.
Kidney cell apoptosis was assessed by TUNEL staining using ApopTag® Peroxidase In Situ Apoptosis Detection Kit (Millipore). The apoptotic index was calculated as percentage of dead cells in 3 independent 400×HPF per section per animal by, counting both stained nuclei and total nuclei.
Serum plasma was collected 24 h after ischemia reperfusion and stored at −80 deg C. until further processing. Serum creatinine was quantified using QuantiChrom™ Creatinine Assay Kit (Bioassays systems). Serum blood urea nitrogen levels were measured using Infinity Urea liquid stable reagent (Thermo fisher).
(§1) Kidney tissues were snap frozen and stored at −80 deg C. until processing. The tissues were homogenized and total RNA was prepared using RNeasy kit (Qiagen). DNA contamination was eliminated by DNase digestion. The reverse transcribed cDNA was subjected to qPCR using a Sybr green based detection system (SA Bioscience). Relative levels of mRNA was normalized to GAPDH levels and quantified based on 2e-deltaCT method.

[1] = system: primary cultures of renal proximal tubule epithelial cells (RPTECs); test: in vitro IRI model: primary RPTEC cultures, mineral oil overlay induced hypoxia followed by reperfusion, qPCR; assay type: cell-based, mice; details: for CCL20 induction: Nur77 knockout RPTECs; for Nur77 levels (induction after ischemia-reperfusion): RPTECs, hypoxia by mineral oil overlay then reperfusion; for Nur77 levels (induction after ischemia-reperfusion) / Induction of Nr4a family members (Nor-1, Nurr1): vs vehicle; for Induction of Nr4a family members (Nor-1, Nurr1): both wild type and Nur77 knockout RPTEC cultures
Experimental: as §1
Kidneys from 4-5 weeks old mice were harvested after perfusion with sterile PBS. Cortex was separated and minced into ˜1 mm3 pieces and digested using collagenase and soybean trypsin inhibitor for 30 min and 37 degC. The digested mix was spun down and filtered through 200 uM filter followed by a 70 uM filter. The tubules that are retained on the top of the 70 uM filter were collected and cultured in Renal life cell growth medium (Lifeline cell technology) on collagen coated plates. After 7 days of culturing, the cells were used for experiments. The purity of the culture was ascertained by staining for cytokeratin (Anti-cytokeratin antibody: Sigma). To induce ischemia reperfusion injury, confluent monolayer of RPTECs was overlayed with mineral oil for 1 h, followed by reperfusion with complete medium.
Retinoic acid can antagonize Nur77 function by inhibiting its transcriptional induction, DNA binding and nuclear export^17,18. RXRs heterodimerize with Nur77 in response to cell death stimuli, promoting nuclear export and causing Bcl-2 dependent cytochrome c release and apoptosis. Ligand bound RXR inhibits Nur77 function either by retaining it in the nucleus or by inhibiting its transcription by an AP-1 dependent mechanism^18. Since Nur77 deficient mice were protected from renal IRI, whether pharmacologic antagonism of Nur77 by retinoic acid could be used to protect kidneys from acute injury was assessed. To determine whether retinoids could regulate Nur77-dependent signaling in renal epithelia, primary cultures of renal proximal tubule epithelial cells (RPTECs) were generated from either wild type or Nur77 knockout mice. RPTECs were treated with either vehicle or 9-cis-retinoic acid, and subjected to mineral oil overlay induced hypoxia, followed by reperfusion.

[2] = Nur77+/+ (wild type) RPTECs, listed as 9-cis-RA

## CC1=C(/C=C/C(C)=C\C=C\C(C)=C\C(=O)O)C(C)(C)CCC1 [9-cis-retinoic acid]
Renal IRI
  BUN (serum blood urea nitrogen): reduced
  serum creatinine: reduced
  tubular / renal injury score: improved
  apoptotic cells in kidney (TUNEL): significantly less
  neutrophil infiltration in kidney: much less
  CXCL2 gene expression level in kidney: Reduced
  Nor-1 and Nurr-1 levels in kidney: dramatically lower induction
  Nur77 gene expression level in kidney: dramatically lower induction
  localization pattern of Nur77: cytoplasmic
Renal IRI; listed as 9-cis-RA
  BUN (serum blood urea nitrogen): significantly lower
  serum creatinine: significantly lower
  apoptotic cells in kidney (TUNEL): fewer apoptotic cells
  neutrophil infiltration in kidney: fewer
  CXCL2 gene expression level in kidney: greatly diminished
  tubular / renal injury score: less injured
  Nor-1 and Nurr-1 levels in kidney: reduced
  Nur77 gene expression level in kidney: significantly diminished
Renal IRI; listed as 9 cis-RA
  localization pattern of Nur77: unaltered
Renal IRI; mice that received 9-cis-retinoic acid, after renal IRI
  overall level of Nur77 protein expression in kidney (immunochemistry): dramatically reduced
Renal IRI; treatment prior to the induction of IRI
  transcript level of HIF-1 alpha: unchanged
[1]; Nur77+/+ (wild type) RPTECs
  CCL20 levels: very substantially reduced
  Induction of CXCL2: significantly attenuated
[1]; [2]
  CCL20 levels: reduced
  Induction of CXCL2: reduced
[1]
  CCL20 induction: no further effect
  Nur77 levels (induction after ischemia-reperfusion): reduced by about half
  Induction of Nr4a family members (Nor-1, Nurr1): inhibited
[1]; listed as 9-cis-RA
  CCL20 induction: did not substantially reduce the expression level further
  Nur77 levels (induction after ischemia-reperfusion): attenuated the induction
  Induction of Nr4a family members (Nor-1, Nurr1): attenuated the induction
[1]; RPTECs from Nur77 knockout kidneys
  Induction of CXCL2: no further inhibitory effect
[1]; RPTECs from Nur77 knockout kidneys, listed as 9-cis-RA
  Induction of CXCL2: did not substantially reduce the expression level further
